Reference: the SangsterLogP compilation

assay: not given; conditions: not given

| Structure (SMILES) | logP |
| --- | --- |
| O=C(Nc1ccc(Cl)cc1)c1cc(Br)ccc1O | 5.02 |
| O=C(Nc1ccccc1)c1cc(Cl)cc(Cl)c1O | 4.01 |
| Cc1cc(Br)ccc1NC(=O)c1cc(F)ccc1O | 5.15 |
| O=C(Nc1ccc(Cl)cc1Cl)c1ccccc1O | 5.49 |
| O=C(Nc1ccc(Br)cc1)c1ccccc1O | 4.51 |
| O=C(Nc1ccc(F)cc1F)c1cc(Br)cc(Br)c1O | 4.99 |
| O=C(Nc1ccc(Cl)cc1[N+](=O)[O-])c1cc(Cl)cc(Cl)c1O | 5.08 |
| O=C(Nc1ccc(F)cc1F)c1cc(Cl)cc(Cl)c1O | 4.55 |

Results, then the compound that gave them:

| logP | Structure (SMILES) |
| --- | --- |
| 3.98 | O=C(Nc1ccccc1)c1cc(Cl)ccc1O |
| 5.15 | O=C(Nc1ccc(Cl)cc1)c1cc(Cl)cc(Cl)c1O |
| 4.29 | O=C(Nc1ccc(Cl)cc1)c1ccccc1O |
| 5.05 | O=C(Nc1ccc(Cl)cc1[N+](=O)[O-])c1cc(Br)cc(Br)c1O |
| 2.87 | O=C(Nc1ccccc1[N+](=O)[O-])c1ccccc1O |
| 5.18 | Cc1cc(Cl)ccc1NC(=O)c1ccccc1O |
| 4.51 | Cc1cc([N+](=O)[O-])ccc1NC(=O)c1cc(Cl)cc(Cl)c1O |
| 4.89 | Cc1cc(Cl)ccc1NC(=O)c1cc(F)ccc1O |
| 4.02 | O=C(Nc1ccc(Cl)cc1[N+](=O)[O-])c1ccccc1O |

assay: method code SF-HPLC, from DOI: 10.1016/0005-2728(88)90027-8, PMID: 3196713; conditions: pH 2.2

| logD | Structure (SMILES) |
| --- | --- |
| 4.35 | O=C(Nc1ccccc1Cl)c1ccccc1O |
| 4.21 | Cc1ccccc1NC(=O)c1cc(Cl)ccc1O |
| 4.76 | O=C(Nc1ccc(F)cc1)c1cc(Cl)cc(Cl)c1O |
